# Reference: patent US11371040B2, “Endonuclease-barcoding” (priority 2015, dated 2022)
# Tests used:
# HCT-116 cells = experiment: TP53 CRISPR-barcoding (TP53-STOP vs TP53-WT barcode, qPCR) in HCT-116 cells; type: cell-based; details: relative to TP53-WT control barcode
# Experimental: (§1) 293T (human embryonic kidney), DLD-1, HCT-116 (colorectal carcinoma), MCF-7 (breast cancer) were obtained from ATCC, PC9 cells (NSCLC) were obtained from ECACC-Sigma-Aldrich, Kelly cells (neuroblastoma) were a kind gift from Dr. C. Einvik. All cells were grown in Dulbecco's modified Eagle's Medium (Life technologies) except Kelly and PC-9 cells, grown in Roswell Park Memorial Institute medium (Life technologies), both supplemented with 10% fetal bovine serum (FBS, Life Technologies) and 0.6% penicillin/streptomycin (Life technologies). Cells were transfected with a Nucleofector II device (Lonza) using the Amaxa Nucleofector kit (Lonza) and electroporation program recommended by the manufacturer. 293T cells were transfected using polyethylenimine (Polysciences). The efficiency of each transfection was assessed in parallel using a GFP-containing plasmid. […]
# (§2) gDNA was extracted using the NucleoSpin Tissue kit (Macherey-Nagel). […] Primer specificity for each particular barcode was assessed. qPCR was performed from 100 ng of gDNA using SYBR Green (Life Technologies) on a 7900 HT Fast-Real-Time, a Q-PCR ABI PRISM 7500 or a QuantStudio Flex PCR System (Life Technologies). qPCR analysis was performed using the standard curve or the Pfaffl methods (Pfaffl, 2001).
# MCF7 cells = experiment: TP53 CRISPR-barcoding (TP53-STOP vs TP53-WT barcode, qPCR) in MCF7 cells; type: cell-based; details: relative to TP53-WT control barcode
# Experimental: as §1, §2
# PC9 cells [1] = experiment: Mouse xenografts of multiplex CRISPR-barcoded PC9 cells; type: in vivo, SCID mice
# Experimental: PC9 cells containing the EGFR-T790, KRAS-G12 and EML4-ALK barcodes were resuspended in PBS and subcutaneously inoculated in the left and right flank (2×10^6 cells per site) of male SCID mice (NCI). The size of the tumors was measured by caliper every 3-4 days. […] When the size of at least one of the tumors reached the arbitrary volume of 550 mm^3, the mice were sacrificed and gDNA was extracted from the tumors for qPCR analysis.
# When at least one of the two tumors exceeded the arbitrary volume of 550 mm^3, the mice were sacrificed and gDNA was derived from the tumors. The frequency of the three different mutations in the tumor samples was measured by qPCR and normalized to the levels observed in the same batch of cells prior to injection in the mice.
# PC9 cells [2] = experiment: KRAS-G12 CRISPR-barcoding in PC9 cells; type: cell-based; details: PC9 cells treated in the presence or absence of inhibitor
# Source text: CRISPR Barcoding sgRNA target sequences (See Sequence Listing—SEQ ID No 1-14) were designed using the CRISPR Design tool hosted by the Massachusetts Institute of Technology (see the website located at crispr.mit,edu) to minimize potential off-target effects. Oligos encoding the targeting sequence were then annealed and ligated into the pSpCas9(BB)-2A-Puro (Ran et al., 2013) vector digested with Bbsl (New England Biolabs). The sequence of the ssODNs (Integrated DNA Technologies) used for CRISPR/Cas9-mediated HDR, containing one missense/nonsense mutation coupled with different silent mutations, are provided in the sequence listing (SEQ ID No 15-29). The set of silent mutations is designed to enable PCR specificity and to avoid recognition by the corresponding sgRNA used to cleave the endogenous sequence. For each targeted locus, cells were co-transfected with 2 μg of the CRISPR/Cas9 plasmid and […] of either the control or the sense/nonsense ssODN (50 μM). […]
# gDNA was extracted using the NucleoSpin Tissue kit (Macherey-Nagel). […] Primer specificity for each particular barcode was assessed. qPCR was performed from 100 ng of gDNA using SYBR Green (Life Technologies) on a 7900 HT Fast-Real-Time, a Q-PCR ABI PRISM 7500 or a QuantStudio Flex PCR System (Life Technologies). qPCR analysis was performed using the standard curve or the Pfaffl methods (Pfaffl, 2001). […]
# PC9 cells [3] = experiment: EML4-ALK inversion barcoding in PC9 cells; type: cell-based
compound,measurement,setting,value
COc1ccc(C2=N[C@@H](c3ccc(Cl)cc3)[C@@H](c3ccc(Cl)cc3)N2C(=O)N2CCNC(=O)C2)c(OC(C)C)c1 (racemic) [Nutlin 3],fraction of cells containing the TP53-STOP barcode,HCT-116 cells,significantly increased
same,fraction of cells containing the TP53-STOP barcode,MCF7 cells,significantly increased
COc1cc2ncnc(Nc3ccc(F)c(Cl)c3)c2cc1OCCCN1CCOCC1 [gefitinib],growth of the tumors,"PC9 cells [1]; 25 mg/kg/day by gavage, from day 16 after injection","initially arrested upon gefitinib treatment, but it eventually resumed after a few weeks"
same,"proportion of all three mutations (EGFR-T790M, KRAS-G12D, EML4-ALK) in the tumors","PC9 cells [1]; 25 mg/kg/day, qPCR, normalized to cells prior to injection",strongly increased
same,enrichment of KRAS-G12D cells,PC9 cells [2],significant enrichment
same,enrichment of EML4-ALK containing PC9 cells,PC9 cells [3],induced an enrichment
COc1cccc2c1C(=O)c1c(O)c3c(c(O)c1C2=O)C[C@@](O)(C(=O)CO)C[C@@H]3O[C@H]1C[C@H](N)[C@H](O)[C@H](C)O1 [doxorubicin],fraction of cells containing the TP53-STOP barcode,HCT-116 cells,did not affect
same,fraction of cells containing the TP53-STOP barcode,MCF7 cells,did not affect
